Data as given in PubChem BioAssay AID270 (DTP/NCI, 2004).
“And” between values parts separate entries of the source, which are not always exact repeats. Equal values may be shown once. Results filed as inconclusive are left out.

Test system: BDF1 mice, s.c. Lewis lung carcinoma, T/C %
Assay: NCI In Vivo Anticancer Drug Screen. Data for tumor model Lewis Lung Carcinoma (subcutaneous) in B6D2F1 (BDF1) mice
In short: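 Antitumor effect in vivo is scored from survival or tumor burden, reported as treated relative to vehicle controls.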

[1] = endpoint: mean tumor weight, dose: 50.0 mg/kg/injection, schedule: Q01DX011 (ip), vehicle: carboxymethylcellulose (CMC), higher = larger tumour
[2] = endpoint: mean tumor weight, dose: 100.0 mg/kg/injection, schedule: Q01DX011 (ip), vehicle: carboxymethylcellulose (CMC), higher = larger tumour
[3] = endpoint: median survival time, dose: 6.25 mg/kg/injection, schedule: Q01DX009 (ip), vehicle: Klucel (hydroxypropylcellulose) (HPC), higher = longer survival
[4] = endpoint: median survival time, dose: 12.5 mg/kg/injection, schedule: Q01DX009 (ip), vehicle: Klucel (hydroxypropylcellulose) (HPC), higher = longer survival
[5] = endpoint: median survival time, dose: 25.0 mg/kg/injection, schedule: Q01DX009 (ip), vehicle: Klucel (hydroxypropylcellulose) (HPC), higher = longer survival

`N/N=C(\N)c1nn(C2OC(CO)C(O)C2O)c2ncnc(N)c12` (stereo not given) was tested, and the T/C (endpoint: median survival time, dose: 40.0 mg/kg/injection, schedule: Q01DX005 (ip), vehicle: saline, higher = longer survival) was 124 % of control and the T/C (endpoint: median survival time, dose: 80.0 mg/kg/injection, schedule: Q01DX005 (ip), vehicle: saline, higher = longer survival) was 104 % of control.
`CNCc1ccccc1` was tested, and the T/C (endpoint: mean tumor weight, dose: 25.0 mg/kg/injection, schedule: Q01DX011 (ip), vehicle: carboxymethylcellulose (CMC), higher = larger tumour) was 105 % of control, the T/C [1] was 124 % of control and the T/C [2] was 65 % of control.
`Cc1ccc(NC(=O)N(CCBr)N=O)cc1` was tested, and the T/C (endpoint: median survival time, dose: 0.5 mg/kg/injection, schedule: Q01DX009 (ip), vehicle: other, higher = longer survival) was 101 % of control, the T/C (endpoint: median survival time, dose: 1.0 mg/kg/injection, schedule: Q01DX009 (ip), vehicle: other, higher = longer survival) was 103 % of control and the T/C (endpoint: median survival time, dose: 1.6 mg/kg/injection, schedule: Q01DX009 (ip), vehicle: other, higher = longer survival) was 97 % of control. The T/C (endpoint: median survival time, dose: 2.0 mg/kg/injection, schedule: Q01DX009 (ip), vehicle: other, higher = longer survival) was 106 % of control, the T/C (endpoint: median survival time, dose: 4.0 mg/kg/injection, schedule: Q01DX009 (ip), vehicle: other, higher = longer survival) was 97 % of control and the T/C (endpoint: median survival time, dose: 6.25 mg/kg/injection, schedule: Q01DX009 (ip), vehicle: other, higher = longer survival) was 94 % of control and 99 % of control. For the same compound, the T/C (endpoint: median survival time, dose: 12.5 mg/kg/injection, schedule: Q01DX009 (ip), vehicle: other, higher = longer survival) was 95 % of control, the T/C (endpoint: median survival time, dose: 25.0 mg/kg/injection, schedule: Q01DX009 (ip), vehicle: other, higher = longer survival) was 96 % of control and the T/C (endpoint: median survival time, dose: 50.0 mg/kg/injection, schedule: Q01DX009 (ip), vehicle: other, higher = longer survival) was 96 % of control.
For `O=c1[nH]c(=O)n(C2CC(O)C(CO)O2)cc1Br` (stereo not given), the T/C [1] was 67 % of control, the T/C [2] was 88 % of control and the T/C (endpoint: mean tumor weight, dose: 200.0 mg/kg/injection, schedule: Q01DX011 (ip), vehicle: carboxymethylcellulose (CMC), higher = larger tumour) was 41 % of control. For the same compound, the T/C (endpoint: mean tumor weight, dose: 400.0 mg/kg/injection, schedule: Q01DX011 (ip), vehicle: carboxymethylcellulose (CMC), higher = larger tumour) was 53 % of control.
`Cc1cc(NCCCCCCNc2cc(C)nc3ccc(N)cc23)c2cc(N)ccc2n1` was tested, and the T/C (endpoint: median tumor weight (est.), dose: 18.75 mg/kg/injection, schedule: Q01DX009 (ip), vehicle: Klucel (hydroxypropylcellulose) (HPC), higher = larger tumour) was 75 % of control, the T/C (endpoint: median tumor weight (est.), dose: 37.5 mg/kg/injection, schedule: Q01DX009 (ip), vehicle: Klucel (hydroxypropylcellulose) (HPC), higher = larger tumour) was 54 % of control and the T/C (endpoint: median tumor weight (est.), dose: 37.5 mg/kg/injection, schedule: Q01DX009 (oral), vehicle: Klucel (hydroxypropylcellulose) (HPC), higher = larger tumour) was 90 % of control. For the same compound, the T/C (endpoint: median tumor weight (est.), dose: 75.0 mg/kg/injection, schedule: Q01DX009 (ip), vehicle: Klucel (hydroxypropylcellulose) (HPC), higher = larger tumour) was 27 % of control, the T/C (endpoint: median tumor weight (est.), dose: 75.0 mg/kg/injection, schedule: Q01DX009 (oral), vehicle: Klucel (hydroxypropylcellulose) (HPC), higher = larger tumour) was 102 % of control and the T/C (endpoint: median tumor weight (est.), dose: 150.0 mg/kg/injection, schedule: Q01DX009 (oral), vehicle: Klucel (hydroxypropylcellulose) (HPC), higher = larger tumour) was 102 % of control. The T/C (endpoint: median tumor weight (est.), dose: 300.0 mg/kg/injection, schedule: Q01DX009 (oral), vehicle: Klucel (hydroxypropylcellulose) (HPC), higher = larger tumour) was 84 % of control and the T/C (endpoint: median tumor weight (est.), dose: 600.0 mg/kg/injection, schedule: Q01DX009 (oral), vehicle: Klucel (hydroxypropylcellulose) (HPC), higher = larger tumour) was 83 % of control.
For `O=C(Nc1ccc(C(=O)O)cc1)Oc1ccc(N(CCCl)CCCl)cc1`, the T/C [3] was 100 % of control, the T/C [4] was 100 % of control and the T/C [5] was 88 % of control.
With `C=C[C@@]1(C)C=C2CC[C@@H]3[C@](C)(CCC[C@@]3(C)C(=O)O)[C@H]2CC1` the T/C (endpoint: mean tumor weight, dose: 25.0 mg/kg/injection, schedule: Q01DX011 (ip), vehicle: saline, higher = larger tumour) was 95 % of control, the T/C (endpoint: mean tumor weight, dose: 50.0 mg/kg/injection, schedule: Q01DX011 (ip), vehicle: saline, higher = larger tumour) was 88 % of control and the T/C (endpoint: mean tumor weight, dose: 100.0 mg/kg/injection, schedule: Q01DX011 (ip), vehicle: saline, higher = larger tumour) was 84 % of control. For the same compound, the T/C (endpoint: mean tumor weight, dose: 200.0 mg/kg/injection, schedule: Q01DX011 (ip), vehicle: saline, higher = larger tumour) was 95 % of control.
With `CCCCC[C@H](O)/C=C/[C@H]1[C@H](O)CC(=O)[C@@H]1C/C=C\CCCC(=O)O` the T/C (endpoint: median survival time, dose: 50.0 mg/kg/injection, schedule: Q04DX002 (ip), vehicle: saline with Tween-80, higher = longer survival) was 95 % of control.
`O=S(=O)(O)O` was tested, and the T/C [3] was 94 % of control and 97 % of control and 121 % of control, the T/C [4] was 88 % of control and 91 % of control and 94 % of control and the T/C [5] was 94 % of control and 102 % of control and 107 % of control. The T/C (endpoint: median survival time, dose: 50.0 mg/kg/injection, schedule: Q01DX009 (ip), vehicle: Klucel (hydroxypropylcellulose) (HPC), higher = longer survival) was 70 % of control and 94 % of control, the T/C (endpoint: median survival time, dose: 100.0 mg/kg/injection, schedule: Q01DX009 (ip), vehicle: Klucel (hydroxypropylcellulose) (HPC), higher = longer survival) was 35 % of control and 42 % of control and the T/C (endpoint: median survival time, dose: 200.0 mg/kg/injection, schedule: Q01DX009 (ip), vehicle: Klucel (hydroxypropylcellulose) (HPC), higher = longer survival) was 30 % of control and 32 % of control.
